How the values were obtained:
[1] = test system: HIF-2a; assay: Effect on HIF-2a level and activity; assay type: cell-based
[2] = test system: HIF-1α levels in A498 (VHL-null) cells; assay: HIF-1α accumulation in VHL-null A498 cells; assay type: cell-based; conditions: 1a 3 μM, VH298 100 μM, 2 h
Experimental: FIG. 3 depicts the effect of complex 1a on HIF-1α target gene products in cellulo. (A) Effect of complex 1a on specific proteins (GLUT1, VEGF, and EPO) mediated by HIF-1α in HEK293 cells. HEK293 cells were treated with 1a for 2 h. Cell lysis were collected and analyzed by the Western blotting. (B) Complex 1a has no effect on HIF-1α accumulation in a VHL null cancer cell line. A498 (VHL-null), or HEK293 cells were treated with 1% DMSO, 1a (3 μM), VH298 (100 μM), and FG-4592 (100 μM) for 2 h before lysis. (C) Effect of complex 1a on EPO, GLUT1, and VEGF levels in HEK293 cells with or without HIF-1α knockdown. Left: The expression levels of EPO, GLUT1, and VEGF in HEK293 cells with or without knockdown HIF-1α in the presence or absence of 1a. Right: Densitometry analysis of EPO, GLUT1, and VEGF levels on the Western blot. HIF-1α siRNA [sense, 5′-[…]-3′ (SEQ ID NO:1), antisense, 5′-[…]-3′ (SEQ ID NO:2)]. Negative control (NC) siRNA [sense, 5′-[…]-3′ (SEQ ID NO:3), antisense, 5′-[…]-3′ (SEQ ID NO:4)]. Data are expressed as means±SD (n=3 independent experiments), P values were calculated using a two-sided t-test. #P<0.05, P<0.01 HIF-1α siRNA vs. NC siRNA, *P<0.05, **P<0.01 1a vs. vehicle/DMSO group, respectively. […]

[3] = biological target: T1, PHD2 (Homo sapiens, UniProt Q9GZT9); assay: Cellular thermal shift assay (CETSA) in HEK293 cell lysates, PHD2; assay type: binding; conditions: 3 μM
T1 construct: detected by Western blotting using either VHL or PHD2 antibodies; endogenous in cells; host or cells: HEK293 cell lysate
Experimental: (§1) HEK293 cells were treated with vehicle DMSO (1% for 2 h), 1a (0.3, 1, 3, 6 and 9 μM for 2 h), VH298 (100 μM for 2 h), MG132 (20 μM for 3 h), or FG-4592 (100 μM for 2 h) before lysis. Cell lysates were collected and incubated with VHL antibody overnight at 4° C. The proteins were immunoprecipitated using agarose beads. The levels of hydroxy-HIF-1α co-precipitated with VHL were detected using a hydroxy-HIF-1α antibody, and then visualized using ECL Western Blotting Detection Reagent (GE Healthcare). (B) Cellular thermal shift assays to monitor cellular target engagement of VHL and HIF-1α. HEK293 cell lysates were treated with 1a (3 μM) at room temperature for 30 min and then heated at different temperature ranging from 48° C. to 68° C. for 5 min. The protein samples were collected and detected by Western blotting using either VHL or PHD2 antibodies. (C) Fluorescence-based protein thermal shift assay of VBC in the presence or absence of VH298 (100 μM) and complex 1a (100 μM). […] Data are expressed as means±SD (n=3 independent experiments for figures a and b, samples for figures c and e), P values were calculated using a two-sided t-test. *P<0.05, **P<0.01 vs. DMSO group.
After incubating HEK293 cell lysates with complex 1a followed by heating to set temperatures, VHL and PHD2 levels in the soluble fraction were quantitated by Western blotting. […]

[4] = Body weight, blood glucose and toxicity in treated mice; assay type: in vivo
Source text: The mice were maintained for 3 days. […] All experiments complied with all relevant ethical regulations.

[5] = biological target: VHL (Homo sapiens, UniProt P40337); assay: Binding affinity to VHL compared with VH298; conditions: complex 1a vs VH298
[6] = biological target: T2, VHL-HIF-1α interaction (Homo sapiens, UniProt P40337); assay: Co-immunoprecipitation of hydroxy-HIF-1α with VHL in HEK293 cells; assay type: cell-based; conditions: HEK293 cells, 0.3, 1, 3, 6 and 9 μM for 2 h
T2 construct: endogenous in cells; host or cells: HEK293
Experimental: as §1, with “μM). (D) ITC titration of complex 1a (300 μM) into recombinant VHL protein (30 μM). ITC experiments were carried in a MicroCal PEAQ-ITC Isothermal Titration Calorimeter (Malvern Panalytical).” for “μM).”, “group. […]” for “group.”

[7] = test system: EPO, GLUT1 and VEGF in HIF-1α knockdown HEK293 cells; assay: HIF-1α knockdown assay in HEK293 cells; assay type: cell-based, Human; conditions: HIF-1α siRNA
Experimental: FIG. 3 depicts the effect of complex 1a on HIF-1α target gene products in cellulo. (A) Effect of complex 1a on specific proteins (GLUT1, VEGF, and EPO) mediated by HIF-1α in HEK293 cells. HEK293 cells were treated with 1a for 2 h. Cell lysis were collected and analyzed by the Western blotting. (B) Complex 1a has no effect on HIF-1α accumulation in a VHL null cancer cell line. A498 (VHL-null), or HEK293 cells were treated with 1% DMSO, 1a (3 μM), VH298 (100 μM), and FG-4592 (100 μM) for 2 h before lysis. (C) Effect of complex 1a on EPO, GLUT1, and VEGF levels in HEK293 cells with or without HIF-1α knockdown. Left: The expression levels of EPO, GLUT1, and VEGF in HEK293 cells with or without knockdown HIF-1α in the presence or absence of 1a. Right: Densitometry analysis of EPO, GLUT1, and VEGF levels on the Western blot. HIF-1α siRNA [sense, 5′-[…]-3′ (SEQ ID NO:1), antisense, 5′-[…]-3′ (SEQ ID NO:2)]. Negative control (NC) siRNA [sense, 5′-[…]-3′ (SEQ ID NO:3), antisense, 5′-[…]-3′ (SEQ ID NO:4)]. Data are expressed as means±SD (n=3 independent experiments), P values were calculated using a two-sided t-test. #P<0.05, P<0.01 HIF-1α siRNA vs. NC siRNA, *P<0.05, **P<0.01 1a vs. vehicle/DMSO group, respectively.
A knockdown assay was performed to further verify the on-target effect of complex 1a. EPO, GLUT1, and VEGF are target genes regulated by HIF-1α. […]

[8] = biological target: T3, human recombinant VHL:ElonginB:ElonginC (VBC) complex (Homo sapiens, UniProt P40337); assay: Fluorescence-based protein thermal shift assay (FTS) of VBC; assay type: binding; conditions: 100 μM
T3 construct: made in house
Experimental: as §1
After incubating HEK293 cell lysates with complex 1a followed by heating to set temperatures, VHL and PHD2 levels in the soluble fraction were quantitated by Western blotting.

T1 sequence (Q9GZT9 whole entry): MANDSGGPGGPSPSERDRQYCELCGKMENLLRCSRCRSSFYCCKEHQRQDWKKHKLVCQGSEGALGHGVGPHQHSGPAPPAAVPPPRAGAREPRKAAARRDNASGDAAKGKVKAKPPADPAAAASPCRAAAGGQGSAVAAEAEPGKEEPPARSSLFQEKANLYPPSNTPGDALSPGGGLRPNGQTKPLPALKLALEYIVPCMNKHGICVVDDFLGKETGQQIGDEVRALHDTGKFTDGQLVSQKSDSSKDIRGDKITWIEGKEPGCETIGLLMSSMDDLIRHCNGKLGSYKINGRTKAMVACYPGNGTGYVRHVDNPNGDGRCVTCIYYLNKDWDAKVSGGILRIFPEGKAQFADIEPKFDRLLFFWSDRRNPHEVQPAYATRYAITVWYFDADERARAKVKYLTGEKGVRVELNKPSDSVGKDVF
T2 sequence (P40337 whole entry): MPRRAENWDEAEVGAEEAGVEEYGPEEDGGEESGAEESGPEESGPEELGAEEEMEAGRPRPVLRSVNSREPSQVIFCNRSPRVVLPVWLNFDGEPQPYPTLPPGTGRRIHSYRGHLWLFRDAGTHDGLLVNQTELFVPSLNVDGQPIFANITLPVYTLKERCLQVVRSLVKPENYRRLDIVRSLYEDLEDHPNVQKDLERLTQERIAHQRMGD
T2 sequence (Q15370 whole entry partner): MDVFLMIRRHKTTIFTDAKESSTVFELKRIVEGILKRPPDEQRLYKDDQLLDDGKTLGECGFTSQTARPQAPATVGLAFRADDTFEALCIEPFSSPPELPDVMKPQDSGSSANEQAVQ
T2 sequence (Q15369 whole entry partner): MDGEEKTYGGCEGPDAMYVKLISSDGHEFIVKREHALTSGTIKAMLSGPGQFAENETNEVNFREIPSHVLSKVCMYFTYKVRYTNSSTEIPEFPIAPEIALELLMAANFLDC
T3 sequence (P40337 whole entry): as the sequence (P40337 whole entry) above
T3 sequence (Q15370 whole entry partner): as the sequence (Q15370 whole entry partner) above
T3 sequence (Q15369 whole entry partner): as the sequence (Q15369 whole entry partner) above
Sequence of VHL (P40337 whole entry): as the sequence (P40337 whole entry) above
Sequence of VHL (Q15370 whole entry partner): as the sequence (Q15370 whole entry partner) above
Sequence of VHL (Q15369 whole entry partner): as the sequence (Q15369 whole entry partner) above

COc1cc[n+]2c3c1ccc1c(OC)cc[n+](c13)[Ir-3]213([c]2ccccc2-c2cccc[n+]21)[c]1ccccc1-c1cccc[n+]13.F[P-](F)(F)(F)(F)F [1a]
Level and activity of HIF-2a [1]: no effect on the level and activity of HIF-2a
HIF-1α levels in A498 cells [2]: no increase in HIF-1α levels
Thermal stabilization of PHD2 (CETSA) [3]: no appreciable effect on the thermal stabilization of PHD2
Blood glucose levels or body weight ([4]; HFD/STZ and STZ models, diabetic and NC mice, 1.25 mg/kg i.p.): neither diabetic nor normal control mice (NC) showed obvious changes in blood glucose levels or body weight
Body weight after local application ([4]; WT and db/db mice, 0.25 mg/mL topical, 8 days): did not affect body weight
Toxicity in animal models of diabetes ([4]; db/db, HFD/STZ and STZ): without significant toxicity
Binding affinity, lower than that of VH298 [5]: around 100 fold
Amount of HIF-1α-OH co-precipitating with VHL [6]: reduced the amount of HIF-1α-OH co-precipitating with VHL in a dose-dependent manner
Accumulation of EPO, GLUT1 and VEGF in HIF-1α knockdown cells compared with normal cells [7]: less able to increase the accumulation of EPO, GLUT1, and VEGF in HIF-1α knockdown cells
Shift of the melting curve of purified VBC (FTS) [8]: ca. 3.0 °C
